Results on 2 compounds are retold here after ChEMBL document CHEMBL5154787 (J Med Chem, 2022).

For orientation: solubility means the concentration that dissolves in the medium under given conditions. For orientation: IC50 means the concentration at which inhibition is half-maximal.

Data set [1] can be described thus: Solubility of compound in FessiF incubated for 24 hrs. It counts as physicochemical.
The nature of data set [2]: Solubility of compound at pH 2 measured after 24 hrs. In kind it is physicochemical. The following applies: buffer.
The target in data set [3] is Solute carrier family 22 member 6 (Homo sapiens, UniProt Q4U2R8). Kind of data set: Inhibition of OAT1 (unknown origin).
Solute carrier family 22 member 6, sequence (Q4U2R8 whole entry): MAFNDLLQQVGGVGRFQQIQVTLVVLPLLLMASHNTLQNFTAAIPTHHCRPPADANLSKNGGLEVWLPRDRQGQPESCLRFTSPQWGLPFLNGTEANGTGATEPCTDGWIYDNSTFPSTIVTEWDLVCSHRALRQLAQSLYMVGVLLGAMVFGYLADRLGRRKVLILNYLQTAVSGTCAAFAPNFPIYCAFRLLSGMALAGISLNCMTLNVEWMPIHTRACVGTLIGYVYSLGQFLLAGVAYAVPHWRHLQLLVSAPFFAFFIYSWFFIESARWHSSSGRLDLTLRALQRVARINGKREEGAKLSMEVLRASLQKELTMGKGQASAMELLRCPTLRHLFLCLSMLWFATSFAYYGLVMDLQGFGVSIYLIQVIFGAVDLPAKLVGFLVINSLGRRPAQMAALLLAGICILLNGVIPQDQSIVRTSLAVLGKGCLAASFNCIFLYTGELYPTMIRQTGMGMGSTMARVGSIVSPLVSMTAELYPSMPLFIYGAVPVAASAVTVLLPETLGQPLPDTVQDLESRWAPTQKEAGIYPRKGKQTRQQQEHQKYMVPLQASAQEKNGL
The subject of a further data set is Rattus norvegicus. As to the kind of experiment: Analgesic activity in STZ induced in diabetic peripheral neuropathic path mechanical allodynia in Sprague-Dawley rat assessed as reversal in mechanical allodynia by measuring inhibition of pain response at 1 mg/kg, po measured up to 5.5 hrs by Hargreaves test relative to control. It counts as functional. Details: scale not given: the % may be the effect or the level left.

In data set [4] the target is Organic anion transporter 3 (Homo sapiens, UniProt Q8TCC7). Kind of data set: Inhibition of OAT3 (unknown origin).
Organic anion transporter 3, sequence (Q8TCC7 whole entry): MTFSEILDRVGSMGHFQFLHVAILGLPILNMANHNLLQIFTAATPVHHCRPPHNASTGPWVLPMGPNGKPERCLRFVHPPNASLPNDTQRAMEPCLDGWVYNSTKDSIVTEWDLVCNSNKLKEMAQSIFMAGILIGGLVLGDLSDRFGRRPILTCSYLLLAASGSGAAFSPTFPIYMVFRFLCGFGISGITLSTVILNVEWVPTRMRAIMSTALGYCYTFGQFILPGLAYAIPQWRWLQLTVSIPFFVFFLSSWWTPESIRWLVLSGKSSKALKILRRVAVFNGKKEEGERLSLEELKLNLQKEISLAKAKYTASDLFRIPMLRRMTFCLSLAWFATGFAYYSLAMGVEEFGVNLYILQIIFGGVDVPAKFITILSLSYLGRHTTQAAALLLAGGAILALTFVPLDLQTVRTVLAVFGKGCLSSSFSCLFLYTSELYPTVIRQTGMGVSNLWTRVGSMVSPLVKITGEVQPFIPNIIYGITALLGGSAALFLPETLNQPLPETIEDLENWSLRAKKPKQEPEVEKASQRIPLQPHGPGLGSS
Data set [5] has as its target Citron Rho-interacting kinase (Homo sapiens, UniProt O14578). Kind of data set: Inhibition of CRIK (unknown origin).
Data set [6] can be described thus: Drug concentration in rat spinal cord at 3 mg/kg, po measured after 4 hrs. The following applies: read-out: Ct. It counts as ADME, organism-based.

Citron Rho-interacting kinase, sequence (O14578 whole entry): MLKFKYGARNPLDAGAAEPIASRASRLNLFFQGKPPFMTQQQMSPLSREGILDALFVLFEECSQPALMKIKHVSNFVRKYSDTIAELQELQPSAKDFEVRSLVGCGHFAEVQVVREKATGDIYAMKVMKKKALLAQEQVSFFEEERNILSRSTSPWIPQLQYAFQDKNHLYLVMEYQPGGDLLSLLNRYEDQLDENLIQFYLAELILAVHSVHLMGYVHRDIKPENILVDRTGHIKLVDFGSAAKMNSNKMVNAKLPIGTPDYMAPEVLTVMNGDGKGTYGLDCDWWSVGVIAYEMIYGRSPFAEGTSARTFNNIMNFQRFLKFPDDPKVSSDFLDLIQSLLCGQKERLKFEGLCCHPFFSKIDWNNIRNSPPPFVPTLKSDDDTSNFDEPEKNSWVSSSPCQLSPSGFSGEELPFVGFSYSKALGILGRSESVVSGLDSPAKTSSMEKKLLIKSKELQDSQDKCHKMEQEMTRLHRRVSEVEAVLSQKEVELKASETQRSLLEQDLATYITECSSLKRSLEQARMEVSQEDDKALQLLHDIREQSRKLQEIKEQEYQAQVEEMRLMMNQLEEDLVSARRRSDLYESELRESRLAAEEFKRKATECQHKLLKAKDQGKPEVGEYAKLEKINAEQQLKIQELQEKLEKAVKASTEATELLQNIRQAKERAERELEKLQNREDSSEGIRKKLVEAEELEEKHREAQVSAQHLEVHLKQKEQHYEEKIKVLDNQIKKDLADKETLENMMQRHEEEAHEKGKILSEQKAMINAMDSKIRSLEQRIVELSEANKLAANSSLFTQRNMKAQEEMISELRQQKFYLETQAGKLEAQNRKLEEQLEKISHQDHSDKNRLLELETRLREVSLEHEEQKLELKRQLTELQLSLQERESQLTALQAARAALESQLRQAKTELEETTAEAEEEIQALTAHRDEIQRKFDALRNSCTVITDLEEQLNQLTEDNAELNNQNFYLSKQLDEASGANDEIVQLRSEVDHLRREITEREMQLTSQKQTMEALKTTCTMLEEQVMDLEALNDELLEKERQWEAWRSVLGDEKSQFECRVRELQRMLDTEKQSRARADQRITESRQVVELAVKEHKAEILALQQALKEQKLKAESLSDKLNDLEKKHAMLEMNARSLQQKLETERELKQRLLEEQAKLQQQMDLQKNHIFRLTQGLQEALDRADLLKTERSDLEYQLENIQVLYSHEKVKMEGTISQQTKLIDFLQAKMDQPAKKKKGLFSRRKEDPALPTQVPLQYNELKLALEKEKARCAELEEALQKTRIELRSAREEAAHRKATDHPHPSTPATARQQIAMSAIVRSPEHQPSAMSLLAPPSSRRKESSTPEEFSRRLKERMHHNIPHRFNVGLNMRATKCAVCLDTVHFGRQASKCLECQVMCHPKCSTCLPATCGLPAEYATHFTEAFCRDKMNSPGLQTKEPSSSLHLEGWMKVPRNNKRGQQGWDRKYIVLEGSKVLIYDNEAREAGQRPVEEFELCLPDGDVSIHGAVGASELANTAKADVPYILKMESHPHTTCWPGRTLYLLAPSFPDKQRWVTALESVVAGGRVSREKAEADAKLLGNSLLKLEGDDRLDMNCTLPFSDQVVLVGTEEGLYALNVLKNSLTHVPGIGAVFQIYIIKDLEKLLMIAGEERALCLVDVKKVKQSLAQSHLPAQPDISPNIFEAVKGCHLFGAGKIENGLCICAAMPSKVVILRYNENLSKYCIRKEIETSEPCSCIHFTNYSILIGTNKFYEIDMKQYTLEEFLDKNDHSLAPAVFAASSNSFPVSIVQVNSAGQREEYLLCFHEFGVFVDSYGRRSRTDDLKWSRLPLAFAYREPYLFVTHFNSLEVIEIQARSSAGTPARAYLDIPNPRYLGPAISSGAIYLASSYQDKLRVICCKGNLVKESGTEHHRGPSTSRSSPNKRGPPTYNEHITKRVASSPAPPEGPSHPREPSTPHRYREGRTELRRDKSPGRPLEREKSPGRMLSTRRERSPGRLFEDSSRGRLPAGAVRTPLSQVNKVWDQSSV

For `COC(=O)Nc1cc(-c2ccc(OC[C@@](C)(N)CC(C)C)c(C)n2)ccn1`, the solubility at 24 h in data set [1] and in data set [2] was more than 1000 µg/mL throughout.

For the compound `CC(C)C[C@](C)(N)COc1cnc(-c2ccnc(C(F)F)c2)cc1C(F)F`, the results for the IC50 in data set [3], in data set [4] and in data set [5] were more than 50 µM, more than 50 µM and 1.2 µM, respectively. The Activity in the data set on Rattus norvegicus came to 50%. Also, in data set [6], the concentration at 4 h amounted to 825 nM.
